Assay results reported in patent publication USRE40086E1, “Method for treating bacterial infection with novel 7-substituted-9-substituted amino 6-demethyl-6-deoxytetracyclines” (Wyeth Holdings Corporation, priority 1991, dated 2008).

Experiments:
E. coli #311 (MP) = experiment: MIC, agar dilution (Table IA); assay type: cell-based; settings: unit assumed
[1] = system: E. coli UBMS 89-2 (Sensitive); experiment: MIC, agar dilution; assay type: cell-based; settings: E. coli UBMS 89-2 Tet Sens.; Table IA; unit assumed
[2] = system: S. aureus UBMS 88-7 (tetK); experiment: MIC, agar dilution; assay type: cell-based; settings: S. aureus UBMS 88-7 TetK; Table IA; unit assumed
E. coli J2175 = experiment: MIC, agar dilution (Table IA); assay type: cell-based; settings: unit assumed
[3] = system: S. aureus UBMS 88-4 (Sensitive); experiment: MIC, agar dilution; assay type: cell-based; settings: S. aureus UBMS 88-4; Table IA; unit assumed
E. coli UBMS 88-1 (tetB) = experiment: MIC, agar dilution; assay type: cell-based; settings: E. coli UBMS 88-1 TetB; Table IA; unit assumed
E. coli UBMS 90-4 (tetM) = experiment: MIC, agar dilution; assay type: cell-based; settings: E. coli UBMS 90-4 TetM; Table IA; unit assumed
[4] = system: S. aureus IVES 1983 (meth. resistant); experiment: MIC, agar dilution; assay type: cell-based; settings: S. aureus IVES 1983; Table IA; unit assumed
E. faecalis ATCC 29212 = experiment: MIC, agar dilution; assay type: cell-based; settings: E. faecalis ATCC 29212; Table IA; unit assumed
[5] = system: S. aureus UBMS 90-1 (tetM); experiment: MIC, agar dilution; assay type: cell-based; settings: S. aureus UBMS 90-1 TetM; Table IA; unit assumed
S. aureus SMITH (sens) = experiment: In vivo antibacterial evaluation, acute lethal infection in mice; settings: Oral
Description: In Vivo Antibacterial Evaluation (Table VII)

E. coli BAJ9003 = experiment: MIC, agar dilution (Table IA); assay type: cell-based; settings: unit assumed
S. mariescens FDOR 8733 = experiment: MIC, agar dilution (Table IA); assay type: cell-based; settings: unit assumed
E. coli ATCC 25922 = experiment: MIC, agar dilution; assay type: cell-based; settings: E. coli ATCC 25922; Table IA; unit assumed
[6] = system: S. aureus Smith (Sensitive); experiment: MIC, agar dilution; assay type: cell-based; settings: S. aureus SMITH (MP); Table IA; unit assumed
S. aureus ROSE (MP) = experiment: MIC, agar dilution (Table IA); assay type: cell-based; settings: unit assumed
S. aureus NEMC 8769/89-4 = experiment: MIC, agar dilution (Table IA); assay type: cell-based; settings: unit assumed
E. coli UBMS 89-1 (tetM) = experiment: MIC, agar dilution; assay type: cell-based; settings: E. coli UBMS 89-1 TetM; Table IA; unit assumed
E. coli PRP1 TetA = experiment: MIC, agar dilution (Table IA); assay type: cell-based; settings: unit assumed
E. coli J3272 TetD = experiment: MIC, agar dilution (Table IA); assay type: cell-based; settings: unit assumed
[7] = system: S. aureus IVES 2943 (meth. resistant); experiment: MIC, agar dilution; assay type: cell-based; settings: S. aureus IVES 2943; Table IA; unit assumed
[8] = system: S. haemolyticus AVAH 88-3; experiment: MIC, agar dilution; assay type: cell-based; settings: S. hemolyticus AVHAH 88-3; Table IA; unit assumed
[9] = system: S. aureus UBMS 90-3 (Sensitive); experiment: MIC, agar dilution; assay type: cell-based; settings: S. aureus UBMS 90-3; Table IA; unit assumed
[10] = system: Ps. acruginosa ATCC 27853; experiment: MIC, agar dilution (Table IA); assay type: cell-based; settings: unit assumed
E. coli UBMS 90-5 = experiment: MIC, agar dilution (Table IA); assay type: cell-based; settings: unit assumed
E. coli MC4100 TetB = experiment: MIC, agar dilution (Table IA); assay type: cell-based; settings: unit assumed
[11] = system: S. aureus UBMS 88-5 (tetM); experiment: MIC, agar dilution; assay type: cell-based; settings: S. aureus UBMS 88-5 TetM; Table IA; unit assumed
[12] = system: X. maltophilia NEMC 87210; experiment: MIC, agar dilution (Table IA); assay type: cell-based; settings: unit assumed
[13] = system: S. aureus ATCC 29213 (Sensitive); experiment: MIC, agar dilution; assay type: cell-based; settings: S. aureus ATCC 29213; Table IA; unit assumed
[14] = system: S. aureus UBMS 90-2 (tetM); experiment: MIC, agar dilution; assay type: cell-based; settings: S. aureus UBMS 90-2 TetM; Table IA; unit assumed
E. coli J3272 TetC = experiment: MIC, agar dilution (Table IA); assay type: cell-based; settings: unit assumed
E. faecalis 12201 = experiment: MIC, agar dilution; assay type: cell-based; settings: Enterococcus 12201; Table IA; unit assumed
E. coli MC4100 Tet sens. = experiment: MIC, agar dilution (Table IA); assay type: cell-based; settings: unit assumed
E. coli J3272 Tet sens. = experiment: MIC, agar dilution (Table IA); assay type: cell-based; settings: unit assumed

Compound | Antibacterial activity (MIC) (E. coli #311 (MP)) | Antibacterial activity (MIC) [1] | Antibacterial activity (MIC) [2] | Antibacterial activity (MIC) (E. coli J2175) | Antibacterial activity (MIC) [3] | Antibacterial activity (MIC) (E. coli UBMS 88-1 (tetB)) | Antibacterial activity (MIC) (E. coli UBMS 90-4 (tetM)) | Antibacterial activity (MIC) [4] | Antibacterial activity (MIC) (E. faecalis ATCC 29212) | Antibacterial activity (MIC) [5] | Antibacterial activity (MIC) (E. coli BAJ9003) | Antibacterial activity (MIC) (S. mariescens FDOR 8733) | Antibacterial activity (MIC) (E. coli ATCC 25922) | Antibacterial activity (MIC) [6] | Antibacterial activity (MIC) (S. aureus ROSE (MP)) | Antibacterial activity (MIC) (S. aureus NEMC 8769/89-4) | Antibacterial activity (MIC) (E. coli UBMS 89-1 (tetM)) | Antibacterial activity (MIC) (E. coli PRP1 TetA) | Antibacterial activity (MIC) (E. coli J3272 TetD) | Antibacterial activity (MIC) [7] | other results
CC(C(=O)Nc1cc(N(C)C)c2c(c1O)C(=O)C1=C(O)C3(O)C(=O)C(C(N)=O)=C(O)C(N(C)C)C3CC1C2)N1CCCC1.Cl.Cl (stereo not drawn) [AAA, [7S-(7alpha,10aalpha)]-N-[9-(Aminocarbonyl)-4,7-bis(dimethylamino)-5,5a,6,6a,7,10,10a,12-octahydro-1,8,10a,11-tetrahydroxy-10,12-dioxo-2-naphthacenyl)-alpha-methyl-1-pyrrolidineacetamide dihydrochloride] | 0.25 µg/mL | 0.5 µg/mL | 0.5 µg/mL | 0.5 µg/mL | 0.25 µg/mL | 0.5 µg/mL | 0.5 µg/mL | 0.5 µg/mL | 0.12 µg/mL | 0.5 µg/mL | 0.06 µg/mL | 4 µg/mL | 0.25 µg/mL | 0.25 µg/mL | 2 µg/mL | 0.12 µg/mL | 0.12 µg/mL | 0.5 µg/mL | 0.12 µg/mL | 0.5 µg/mL | ED50 (S. aureus SMITH (sens)): >16 mg/kg; Antibacterial activity (MIC) [8]: 0.5 µg/mL; Antibacterial activity (MIC) [9]: 0.25 µg/mL; Antibacterial activity (MIC) [10]: > 32 µg/mL; Antibacterial activity (MIC) (E. coli UBMS 90-5): 0.5 µg/mL; Antibacterial activity (MIC) (E. coli MC4100 TetB): 0.5 µg/mL; Antibacterial activity (MIC) [11]: 0.25 µg/mL; Antibacterial activity (MIC) [12]: 0.5 µg/mL; Antibacterial activity (MIC) [13]: 0.25 µg/mL; Antibacterial activity (MIC) [14]: 0.25 µg/mL; Antibacterial activity (MIC) (E. coli J3272 TetC): 0.5 µg/mL; Antibacterial activity (MIC) (E. faecalis 12201): 0.12 µg/mL; Antibacterial activity (MIC) (E. coli MC4100 Tet sens.): 0.12 µg/mL
CN(C)CC(=O)Nc1cc(N(C)C)c2c(c1O)C(=O)C1=C(O)[C@]3(O)C(=O)C(C(=O)NCN4CCCCC4)=C(O)[C@@H](N(C)C)C3CC1C2 (stereo partly drawn) [HHH, [4S-(4alpha,12aalpha)]-4,7-Bis(dimethylamino)-9-([(dimethylamino)acetyl]amino]-1,4,4a,5,5a,6,11,12a-octahydro-3,10,12,12a-tetrahydroxy-1,11-dioxo-N-(1-piperadinylmethyl)-2-naphthacenecarboxamide] | 0.25 µg/mL | 0.25 µg/mL | 0.5 µg/mL | 0.25 µg/mL | 0.25 µg/mL | 0.25 µg/mL | 0.25 µg/mL | 2 µg/mL | 0.06 µg/mL | 0.25 µg/mL | 0.03 µg/mL | 4 µg/mL | 0.25 µg/mL | 0.12 µg/mL | 2 µg/mL | 0.25 µg/mL | 0.25 µg/mL | 2 µg/mL | 0.12 µg/mL | 2 µg/mL | Antibacterial activity (MIC) [8]: 0.5 µg/mL; Antibacterial activity (MIC) [9]: 0.12 µg/mL; Antibacterial activity (MIC) [10]: 8 µg/mL; Antibacterial activity (MIC) (E. coli UBMS 90-5): 0.25 µg/mL; Antibacterial activity (MIC) (E. coli MC4100 TetB): 0.25 µg/mL; Antibacterial activity (MIC) [11]: 0.25 µg/mL; Antibacterial activity (MIC) [12]: 0.5 µg/mL; Antibacterial activity (MIC) [13]: 0.25 µg/mL; Antibacterial activity (MIC) [14]: 0.12 µg/mL; Antibacterial activity (MIC) (E. coli J3272 TetC): 0.5 µg/mL; Antibacterial activity (MIC) (E. faecalis 12201): 0.12 µg/mL; Antibacterial activity (MIC) (E. coli MC4100 Tet sens.): 0.12 µg/mL
CN(C)c1cc(NC(=O)CNCC(=O)O)c(O)c2c1CC1CC3C(N(C)C)C(O)=C(C(N)=O)C(=O)C3(O)C(O)=C1C2=O (stereo not shown) [KKK] | > 32 µg/mL | > 32 µg/mL | > 32 µg/mL | > 32 µg/mL | 32 µg/mL | > 32 µg/mL | > 32 µg/mL | > 32 µg/mL | 16 µg/mL | > 32 µg/mL | 16 µg/mL | > 32 µg/mL | > 32 µg/mL | 16 µg/mL | > 32 µg/mL | 32 µg/mL | > 32 µg/mL | > 32 µg/mL | > 32 µg/mL | > 32 µg/mL | Antibacterial activity (MIC) [8]: > 32 µg/mL; Antibacterial activity (MIC) [9]: 16 µg/mL; Antibacterial activity (MIC) [10]: > 32 µg/mL; Antibacterial activity (MIC) (E. coli UBMS 90-5): > 32 µg/mL; Antibacterial activity (MIC) (E. coli MC4100 TetB): > 32 µg/mL; Antibacterial activity (MIC) (E. coli J3272 Tet sens.): > 32 µg/mL; Antibacterial activity (MIC) [11]: > 32 µg/mL; Antibacterial activity (MIC) [12]: > 32 µg/mL; Antibacterial activity (MIC) [13]: 32 µg/mL; Antibacterial activity (MIC) [14]: 32 µg/mL; Antibacterial activity (MIC) (E. coli J3272 TetC): > 32 µg/mL; Antibacterial activity (MIC) (E. faecalis 12201): > 32 µg/mL; Antibacterial activity (MIC) (E. coli MC4100 Tet sens.): 32 µg/mL
CN(C)CCCC(=O)Nc1cc(N(C)C)c2c(c1O)C(=O)C1=C(O)[C@]3(O)C(=O)C(C(N)=O)=C(O)[C@@H](N(C)C)C3CC1C2.Cl.Cl (stereo partly drawn) [ZZ, [4S-(4alpha,12aalpha)]-4,7-Bis(dimethylamino)-9-[[4-(dimethylamino)-1-oxobutyl]amino]-1,4,4a,5,5a,6,11,12a-octahydro-3,10,12,12a-tetrahydroxy-1,11-dioxo-2-naphthacenecarboxamide dihydrochloride] | 16 µg/mL | 16 µg/mL | 16 µg/mL | 16 µg/mL | 2 µg/mL | > 32 µg/mL | 16 µg/mL | > 32 µg/mL | 4 µg/mL | 8 µg/mL | 1 µg/mL | > 32 µg/mL | 8 µg/mL | 2 µg/mL | > 32 µg/mL | 1 µg/mL | 32 µg/mL | > 32 µg/mL | 4 µg/mL | > 32 µg/mL | Antibacterial activity (MIC) [8]: 8 µg/mL; Antibacterial activity (MIC) [9]: 2 µg/mL; Antibacterial activity (MIC) [10]: > 32 µg/mL; Antibacterial activity (MIC) (E. coli UBMS 90-5): 16 µg/mL; Antibacterial activity (MIC) (E. coli MC4100 TetB): > 32 µg/mL; Antibacterial activity (MIC) [11]: 8 µg/mL; Antibacterial activity (MIC) [12]: 32 µg/mL; Antibacterial activity (MIC) [13]: 2 µg/mL; Antibacterial activity (MIC) [14]: 4 µg/mL; Antibacterial activity (MIC) (E. coli J3272 TetC): 32 µg/mL; Antibacterial activity (MIC) (E. faecalis 12201): 8 µg/mL; Antibacterial activity (MIC) (E. coli MC4100 Tet sens.): 2 µg/mL
